The molecules below were run on HIV-IIIb (assay: Test A: Antiviral Assay in MT4 Cells). Conditions: Human immunodeficiency virus 1, IIIB, MT4, 120 h.
Format: cell-based
Outline: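 MT-4 cells pre-infected with HIV-IIIb (0.004 m.o.i.) at 37 °C, then exposed to 3-fold serial compound dilutions (10 concentrations, quadruplicate) in RPMI 1640/10% FBS. After 5 days at 37 °C, viability read by CellTiter-Glo luminescence.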

| Molecule | EC50 |
| --- | --- |
| Cc1cc2nc(-c3cncc(N4CCN(C(C)C)CC4)n3)sc2c(-c2ccc(Cl)cc2)c1[C@H](OC(C)(C)C)C(=O)O [Compound 480, (S)-2-tert-butoxy-2-(7-(4-chlorophenyl)-2-(6-(4-isopropylpiperazin-1-yl)pyrazin-2-yl)-5-methylbenzo[d]thiazol-6-yl)acetic acid] | 2 nM |
| Cc1cc2nc(-c3ccnc(-c4ncc5c(n4)c(C)nn5C)c3)sc2c(-c2ccc(Cl)cc2)c1[C@H](OC(C)(C)C)C(=O)O [Compound 488, (S)-2-tert-butoxy-2-(7-(4-chlorophenyl)-2-(2-(1,3-dimethyl-1H-pyrazolo[4,3-d]pyrimidin-5-yl)pyridin-4-yl)-5-methylbenzo[d]thiazol-6-yl)acetic acid] | 11 nM |
| Cc1cc2nc(-c3cnc(C)c(-c4ccc5c(cnn5C)n4)c3)sc2c(-c2ccc(Cl)cc2)c1[C@H](OC(C)(C)C)C(=O)O [Compound 490, (S)-2-tert-butoxy-2-(7-(4-chlorophenyl)-5-methyl-2-(6-methyl-5-(1-methyl-1H-pyrazolo[4,3-b]pyridin-5-yl)pyridin-3-yl)benzo[d]thiazol-6-yl)acetic acid] | 3 nM |

Same assay, conditions: Human immunodeficiency virus 1, IIIB, MT4, 120 h, Table 2; MT-4 cells infected with HIV-IIIb, 5 days of incubation, CellTiter-Glo; read-out: EC50

| Molecule | EC50 |
| --- | --- |
| Cc1cc2nc(-c3ccnc(N4CC[C@H](N(C)C)C4)n3)sc2c(-c2ccc(Cl)cc2)c1[C@H](OC(C)(C)C)C(=O)O [Compound 478, (S)-2-tert-butoxy-2-(7-(4-chlorophenyl)-2-(2-((S)-3-(dimethylamino)pyrrolidin-1-yl)pyrimidin-4-yl)-5-methylbenzo[d]thiazol-6-yl)acetic acid] | 4 nM |
| Cc1cc2nc(-c3ccnc(N4CC[C@@H](N(C)C)C4)n3)sc2c(-c2ccc(Cl)cc2)c1[C@H](OC(C)(C)C)C(=O)O [Compound 479, (S)-2-tert-butoxy-2-(7-(4-chlorophenyl)-2-(2-((R)-3-(dimethylamino)pyrrolidin-1-yl)pyrimidin-4-yl)-5-methylbenzo[d]thiazol-6-yl)acetic acid] | 4 nM |
| Cc1cc2nc(-c3cncc(N4CCN(C(C)C)CC4)c3)sc2c(-c2ccc(Cl)cc2)c1[C@H](OC(C)(C)C)C(=O)O [Compound 481, (S)-2-tert-butoxy-2-(7-(4-chlorophenyl)-2-(5-(4-isopropylpiperazin-1-yl)pyridin-3-yl)-5-methylbenzo[d]thiazol-6-yl)acetic acid] | 17 nM |
| Cc1cc2nc(-c3cncc(N4CCN(C5COC5)CC4)c3)sc2c(-c2ccc(Cl)cc2)c1[C@H](OC(C)(C)C)C(=O)O [Compound 482, (S)-2-tert-butoxy-2-(7-(4-chlorophenyl)-5-methyl-2-(5-(4-(oxetan-3-yl)piperazin-1-yl)pyridin-3-yl)benzo[d]thiazol-6-yl)acetic acid] | 14 nM |
| Cc1cc2nc(-c3cccc(N4CCN(C(C)C)CC4)c3)sc2c(-c2ccc(Cl)cc2)c1[C@H](OC(C)(C)C)C(=O)O [Compound 483, (S)-2-tert-butoxy-2-(7-(4-chlorophenyl)-2-(3-(4-isopropylpiperazin-1-yl)phenyl)-5-methylbenzo[d]thiazol-6-yl)acetic acid] | 37 nM |
| Cc1cc2nc(-c3csc(N4CCN(C(C)C)CC4)n3)sc2c(-c2ccc(Cl)cc2)c1[C@H](OC(C)(C)C)C(=O)O [Compound 484, (S)-2-tert-butoxy-2-(7-(4-chlorophenyl)-2-(2-(4-isopropylpiperazin-1-yl)thiazol-4-yl)-5-methylbenzo[d]thiazol-6-yl)acetic acid] | 9 nM |
| Cc1cc2nc(-c3cnc(N4CCN(C(C)C)CC4)s3)sc2c(-c2ccc(Cl)cc2)c1[C@H](OC(C)(C)C)C(=O)O [Compound 485, (S)-2-tert-butoxy-2-(7-(4-chlorophenyl)-2-(2-(4-isopropylpiperazin-1-yl)thiazol-5-yl)-5-methylbenzo[d]thiazol-6-yl)acetic acid] | 15 nM |
| Cc1cc2nc(-c3ncc(N4CCN(C(C)C)CC4)s3)sc2c(-c2ccc(Cl)cc2)c1[C@H](OC(C)(C)C)C(=O)O [Compound 486, (S)-2-tert-butoxy-2-(7-(4-chlorophenyl)-2-(5-(4-isopropylpiperazin-1-yl)thiazol-2-yl)-5-methylbenzo[d]thiazol-6-yl)acetic acid] | 31 nM |
| Cc1cc2nc(-c3ncc4c(n3)c(C)nn4C)sc2c(-c2ccc(Cl)cc2)c1[C@H](OC(C)(C)C)C(=O)O [Compound 487, (S)-2-tert-butoxy-2-(7-(4-chlorophenyl)-2-(1,3-dimethyl-1H-pyrazolo[4,3-d]pyrimidin-5-yl)-5-methylbenzo[d]thiazol-6-yl)acetic acid] | 12 nM |
| Cc1cc2nc(-c3ccnc(-c4ccc5nc(N)ccc5c4)n3)sc2c(-c2ccc(Cl)cc2)c1[C@H](OC(C)(C)C)C(=O)O [Compound 489, (S)-2-(2-(2-(2-aminoquinolin-6-yl)pyrimidin-4-yl)-7-(4-chlorophenyl)-5-methylbenzo[d]thiazol-6-yl)-2-tert-butoxyacetic acid] | 20 nM |
| Cc1cc2nc(N3CCN(C)[C@@H](c4ccc5c(cnn5C)c4)C3)sc2c(-c2ccc(Cl)cc2)c1[C@H](OC(C)(C)C)C(=O)O [Compound 491, (S)-2-tert-butoxy-2-(7-(4-chlorophenyl)-5-methyl-2-((S)-4-methyl-3-(1-methyl-1H-indazol-5-yl)piperazin-1-yl)benzo[d]thiazol-6-yl)acetic acid] | 51 nM |
| Cc1cc2nc(N3CCN(C)[C@H](c4ccc5c(cnn5C)c4)C3)sc2c(-c2ccc(Cl)cc2)c1[C@H](OC(C)(C)C)C(=O)O [Compound 492, (S)-2-tert-butoxy-2-(7-(4-chlorophenyl)-5-methyl-2-((R)-4-methyl-3-(1-methyl-1H-indazol-5-yl)piperazin-1-yl)benzo[d]thiazol-6-yl)acetic acid] | 3 nM |
| Cc1cc2nc(-c3ccc4c(n3)c(N3CCN(C)CC3)nn4C)sc2c(-c2ccc(Cl)cc2)c1[C@H](OC(C)(C)C)C(=O)O [Compound 495, (S)-2-tert-butoxy-2-(7-(4-chlorophenyl)-5-methyl-2-(1-methyl-3-(4-methylpiperazin-1-yl)-1H-pyrazolo[4,3-b]pyridin-5-yl)benzo[d]thiazol-6-yl)acetic acid] | 4 nM |
| Cc1cc2nc(-c3ccc4c(n3)c(-c3cccnc3)nn4C)sc2c(-c2ccc(Cl)cc2)c1[C@H](OC(C)(C)C)C(=O)O [Compound 496, (S)-2-tert-butoxy-2-(7-(4-chlorophenyl)-5-methyl-2-(1-methyl-3-(pyridin-3-yl)-1H-pyrazolo[4,3-b]pyridin-5-yl)benzo[d]thiazol-6-yl)acetic acid] | 5 nM |
| Cc1cc2nc(-c3ccc4c(c3)c(-c3cncnc3)nn4C)sc2c(-c2ccc(Cl)cc2)c1[C@H](OC(C)(C)C)C(=O)O [Compound 497, (S)-2-tert-butoxy-2-(7-(4-chlorophenyl)-5-methyl-2-(1-methyl-3-(pyrimidin-5-yl)-1H-indazol-5-yl)benzo[d]thiazol-6-yl)acetic acid] | 4 nM |
| Cc1cc2nc(-c3ccnc(-c4cnc5[nH]cc(C)c5c4)c3)sc2c(-c2ccc(Cl)cc2)c1[C@H](OC(C)(C)C)C(=O)O [Compound 498, (S)-2-tert-butoxy-2-(7-(4-chlorophenyl)-5-methyl-2-(2-(3-methyl-1H-pyrrolo[2,3-b]pyridin-5-yl)pyridin-4-yl)benzo[d]thiazol-6-yl)acetic acid] | 34 nM |
| CC(=O)N(C)c1ccc(-c2cc(-c3nc4cc(C)c([C@H](OC(C)(C)C)C(=O)O)c(-c5ccc(Cl)cc5)c4s3)ccn2)cc1 [Compound 499, (S)-2-(tert-butoxy)-2-(7-(4-chlorophenyl)-5-methyl-2-(2-(4-(N-methylacetamido)phenyl)pyridin-4-yl)benzo[d]thiazol-6-yl)acetic acid] | 12 nM |

Same assay, conditions: Table 2; MT-4 cells infected with HIV-IIIb, 5 days of incubation, CellTiter-Glo; read-out: EC50

| Molecule | EC50 |
| --- | --- |
| Cc1cc2nc(-c3ccc4c(c3)c(N3CCN(C(C)C(F)(F)F)CC3)nn4C)sc2c(-c2ccc(Cl)cc2)c1[C@H](OC(C)(C)C)C(=O)O (stereo partly drawn) [Compound 493, (2S)-2-tert-butoxy-2-(7-(4-chlorophenyl)-5-methyl-2-(1-methyl-3-(4-((2R/2S)-1,1,1-trifluoropropan-2-yl)piperazin-1-yl)-1H-indazol-5-yl)benzo[d]thiazol-6-yl)acetic acid] | 51 nM |
| (S)-2-tert-butoxy-2-(7-(4-chlorophenyl)-2-(3-(4,4-dimethylpiperazin-1-ium-1-yl)-1-methyl-1H-indazol-5-yl)-5-methylbenzo[d]thiazol-6-yl)acetate [Compound 494] | 2880 nM |

Each molecule was assayed on human liver microsomes (assay: Test B: Metabolic Stability Assay with Human Liver Microsomes). Conditions: 1 uM compound, 1 mg/mL human liver microsomal proteins, 37° C., 0-60 minutes; half-life class.
Format: in vitro ADME
Description: Test B: Metabolic Stability Assay with Human Liver Microsomes
Effective viral suppression in the HIV infected patient requires that the antiviral drug persists in the patient's body at concentrations exceeding the minimum concentration required to inhibit viral proliferation. One of the factors controlling the drug levels after dosing is metabolic conversion. The liver is one site of drug metabolism. Approximately 60% of marketed drugs are cleared by hepatic metabolism (McGinnity D F et al. (2004) Drug Metab Dispos 32; 1247-1253). Liver microsomes are subcellular fractions which contain membrane bound drug metabolising enzymes. Human liver microsomes provide a convenient and concentrated source of the key liver metabolic enzymes (e.g., cytochromes P450, UDP-glucuronosyltransferases, and many others) and can be used to predict the metabolic stability of drug candidates (e.g., agents).
Cluster tubes containing 500 uL of 1 uM compound with 1 mg/mL human liver microsomal proteins (BD Biosciences, BD452117)/50 mM K-phosphate buffer pH7.4/NADPH regenerating system/and UDP-glucuronosyltransferase cofactors, were incubated on the Precision-2000 workstation at 37° C. for 0, 10, 25, 60 minutes. The reactions were quenched with 100 uL of 0.2% formic acid in 90% ACN; containing 50 nM of an internal standard. The samples were analyzed on LC/MS/MS instrument (Q-Trap). Metabolic stabilities in microsomal fractions and hepatocytes were determined by measuring the rate of disappearance of the compound. Data (% of parent remaining) were plotted on a semi logarithmic scale and fitted using an exponential fit.

| Molecule | Human Microsomal stability |
| --- | --- |
| Cc1cc2nc(-c3ccc4c(c3)ncn4Cc3ccccc3)sc2c(-c2ccc(Cl)cc2)c1[C@H](OC(C)(C)C)C(=O)O [Compound 285, (S)-2-(2-(1-benzyl-1H-benzo[d]imidazol-5-yl)-7-(4-chlorophenyl)-5-methylbenzo[d]thiazol-6-yl)-2-tert-butoxyacetic acid] | A (a human microsomal stability half-life of greater than or equal to 300 minutes) |

From patent US8987250B2 (Gilead Sciences, Inc., priority 2012, dated 2015)
